Measurements as given in paper PMC6804264, “Enlarged Pore Size Chiral Mesoporous Silica Nanoparticles Loaded Poorly Water-Soluble Drug Perform Superior Delivery Effect” (Molecules, 2019).

Key:
[1] = Contact angle measurement (wetting property); type: physicochemical; settings: pH 6.8 PBS; pH 6.8 PBS including trysin (Figure 6)
Method: To study the wettability differences after loading NMS into the two carriers, dynamic contact angle measurement was performed using JCY series (Shanghai, China). The working conditions covered: Automatic contact angle meter model, pressurized tablet of sample, as well as a drop of dissolution medium (2 μL). The measurement was started when dissolution medium dropped onto the tablet.

[2] = In vivo pharmacokinetics after oral (intragastric) administration; settings: male, Wistar, rat, rats, 40 mg/kg NMS, plasma
Method: 9 Male Wistar rats weighing 200 ± 20 g were randomly split into three groups (A group, NMS; B group, NMS/CMSN; C group, NMS/E-CMSN) and fasted for 12 h but given free access to water prior to the experiment. The three samples were suspended in 1.5 mL normal saline with the drug dose of 40 mg/kg and then orally administered (intragastric administration) to rats. Blood media (0.5 mL) of each animal was collected via the suborbital vein at different time intervals after administration and immediately centrifuged at 8000 rpm for 10 min to collect plasma. Subsequently, the obtained plasma was then stored at […] until analysis. 200 μL plasma sample was mixed with 80 μL of an internal standard solution (0.5 mg/mL) and 400 μL acetonitrile. The mixture was vortexed for 2 min. After centrifugation at 10,000 rpm for 5 min, the supernatant of each sample (20 μL) was subjected to HPLC analysis. The working conditions for HPLC analysis included: Mobile phase: methanol: pH 7.3 potassium dihydrogen phosphate buffer (65:35, v/v); Column temperature: 30 °C; Analysis wavelength: 370 nm; Flow rate: 1.0 mL/min.

[3] = stated in the introduction, no reference given; cited from earlier work
[4] = test system: right hind ankle swelling after carrageenan injection into the paw; assay: Anti-inflammatory pharmacodynamics (carrageenan paw model, right hind ankle perimeter); type: in vivo, male Sprague–Dawley rats; settings: rats, oral, 40 mg/kg NMS
Method: Right hind ankle perimeter of rats was ascertained to study the anti-inflammatory biological effect of […] or NMS/E-CMSN. Twelve male Sprague-Dawley rats (200 ± 20 g) were separated into four groups (Group A: Normal saline; Group B: NMS; Group C: NMS/CMSN; Group D: NMS/E-CMSN) and then fasted overnight before experiment. The rats in Group B, Group C and Group D were administered orally with corresponding nanoparticles containing 40 mg/kg NMS, while the rats in Group A were administered orally with normal saline. Afterwards, the perimeters of right hind ankles were ascertained. After half an hour, 0.1 mL 1% carrageenan solution was injected subcutaneously into the paw of each rat. […] Then, the following parameters were calculated. (2) Repressionrate(%)=([…]0)positive (3) Swelling rate(%)=Ct-C0/C0×100 where C0 denotes original perimeter of right hind ankle; Ct is the measured perimeter of right hind ankle.

## CS(=O)(=O)Nc1ccc([N+](=O)[O-])cc1Oc1ccccc1 [NMS, nimesulide]
[1]
  wetting property / contact angle: poor water wetting property
[2]; n = 3
  AUC(0-t): 199 ± 66.6 µg·h/mL
  Cmax: 25400 ± 9680 ng/mL
  Tmax: 4 h
[2]; n = 3, read-out: MRT(0–t)
  MRT last: 5.73 ± 0.354 h
[2]; n = 3, read-out: t1/2z (converted)
  half-life: 5.08 ± 2.81 h
[3]
  LogP value: 3.79
[4]
  time at which anti-inflammatory function started: 0.5 h
[4]; 0.5-4 h
  anti-inflammatory effect according to swelling rate profiles: exerted anti-inflammatory pharmacodynamics effect
